Results: patent publication US12168781B2, “Production method for T cells or NK cells, medium for culturing T cells or NK cells, method for culturing T cells or NK cells, method for maintaining undifferentiated state of undifferentiated T cells, and growth-accelerating agent for T cells or NK cells” (KIRIN HOLDINGS KABUSHIKI KAISHA, priority 2018, dated 2024)
Marks after values point to notes of the source that are not given here.

Tested on: T-iPS-T cells
Test: Number of viable T-iPS-T cells under feeder-free culture (CD3/CD28 Dynabeads, Cell Count Reagent SF, absorbance 450 nm/650 nm)
Format: cell-based, human
Settings: T-iPS-T cells after 1st expansion, 6 days, DMSO control 0.225 ± 0.017
Procedure: T-iPS-T cells (1,500 cells/well) after 1st expansion were seeded and cultured in RPMI-1640 medium (SIGMA, R8758) supplemented with 15% FBS (CORNING, 35-076-CV, 35076104R), 1% PSG (SIGMA, G1146), PAA (50 μg/mL, Nacalai Tesque, 03420-52), ITS-G, IL-7 (5 ng/mL), IL-12 (50 ng/mL), IL-15 (5 ng/mL), IL-18 (50 ng/mL), IL-21 (20 ng/mL), and z-VAD-fmk (10 μM). The cells were stimulated by adding CD3/CD28 Dynabeads (Gibco, 11131D, the “Dynabeads” is a registered trademark) (4,500 beads/well) thereto, and 1,080 compounds [MedChemExpress, Apoptosis Compound Library (HY-L003), Cell Cycle/DNA Damage Compound Library (HY-L004), JAK/STAT Compound Library (HY-L008), MAPK Compound Library (HY-L010), NF-kappaB Compound Library (HY-L014), PI3K/Akt/mTOR Compound Library (HY-L015), and Wnt/Hedgehog/Notch Compound Library (HY-L020)] were added thereto (one type per well) at a final concentration of 1 μM, and then, the cells were cultured at 37° C. under 5% CO2.
DMSO (0.1%) that is a solvent for the compound was used as a control. After 6 days, the number of viable cells was measured using Cell Count Reagent SF (Nacalai Tesque, 07553) and a microplate reader (SoftMax Pro 5.X, Molecular Devices, 450 nm/650 nm).
A calibration curve for cell number was set as follows. When measuring the number of viable cells, 12-point serial dilution was performed for the same cells as those used in the screening, and the cells were seeded (0 to 1,536,000 cells/well) in RPMI-1640 medium supplemented with 15% FBS, 1% PSG, PAA, ITS-G, IL-7 (5 ng/mL) and IL-15 (5 ng/mL). The number of viable cells was measured together with the screening samples, and a calibration curve for WST-8 assay was formed.
In order to further evaluate the results obtained in Example 4, reproducibility was evaluated. As a method therefor, the same method as in Example 4 was used to carry out culturing and evaluation. As compounds, 20 compounds were selected and used among the compounds used in Example 4 including berbamine, and DMSO (0.1%) that is a solvent for the compound was used as a control. Note that in a statistical analysis, a Student's t-test was used (*: p<0.05).
The effect of a berbamine derivative on the proliferation of T cells was verified. As a method therefor, T-iPS-T cells after 1st expansion were cultured in the same manner as in Example 4, and berbamine (BBM) or each of 13 types of derivatives [BBMD1 to 13, Hebei Sundia MediTech Company Ltd.] was added thereto (one type per well) at a final concentration of 0.1 nM, 1 nM, 10 nM, 100 nM, or 1 μM, and then, the cells were cultured at 37° C. under 5% CO2. DMSO (0.1%) that is a solvent for the compound was used as a control.
After culturing for 6 days, the number of viable cells was measured using Cell Count Reagent SF (Nacalai Tesque, 07553) and a microplate reader (SoftMax Pro 5. X, Molecular Devices, 450 nm/650 nm), and the OD value was used as data. Note that in a statistical analysis, a Student's t-test was used (*: p<0.05). 1.

Structure (SMILES)	number of viable cells (OD value) (0.1 nM)	number of viable cells (OD value) (1 nM)	number of viable cells (OD value) (10 nM)	number of viable cells (OD value) (100 nM)	number of viable cells (OD value) (1 μM)
COc1cc2c3cc1Oc1c(OC)c(OC)cc4c1C(Cc1ccc(OS(=O)(=O)c5ccccc5)c(c1)Oc1ccc(cc1)CC3N(C)CC2)N(C)CC4 (centres unmarked) [BBMD1]	0.257 ± 0.024	0.268 ± 0.009 *	0.289 ± 0.033 *	0.415 ± 0.039 **	0.529 ± 0.101 **
COc1cc2c3cc1Oc1c(OC)c(OC)cc4c1C(Cc1ccc(CCCCBr)c(c1)Oc1ccc(cc1)CC3N(C)CC2)N(C)CC4 (centres unmarked) [BBMD2]	–	0.269 ± 0.059	0.295 ± 0.028 *	0.437 ± 0.059 **	0.493 ± 0.036 ***
COc1cc2c3cc1Oc1c(OC)c(OC)cc4c1C(Cc1ccc(OCc5ccc([N+](=O)[O-])cc5)c(c1)Oc1ccc(cc1)CC3N(C)CC2)N(C)CC4 (centres unmarked) [BBMD3]	0.245 ± 0.013	0.298 ± 0.021 *	0.325 ± 0.077^	0.581 ± 0.025 ****	0.195 ± 0.002
COc1cc2c3cc1Oc1c(OC)c(OC)cc4c1C(Cc1ccc(OC(=O)C(C)(C)C)c(c1)Oc1ccc(cc1)CC3N(C)CC2)N(C)CC4 (centres unmarked) [BBMD4]	0.234 ± 0.024	0.245 ± 0.037	0.286 ± 0.019 *	0.470 ± 0.023 ***	0.470 ± 0.053 **
COc1cc2c3cc1Oc1c(OC)c(OC)cc4c1C(Cc1ccc(OC(=O)c5cc6ccccc6[nH]5)c(c1)Oc1ccc(cc1)CC3N(C)CC2)N(C)CC4 (centres unmarked) [BBMD5]	0.246 ± 0.001	0.245 ± 0.016	0.285 ± 0.032 *	0.477 ± 0.064 **	0.186 ± 0.001
COc1cc2c3cc1Oc1c(OC)c(OC)cc4c1C(Cc1ccc(OC(=O)c5ccc(Br)cc5)c(c1)Oc1ccc(cc1)CC3N(C)CC2)N(C)CC4 (centres unmarked) [BBMD6]	0.248 ± 0.019	0.248 ± 0.016	0.290 ± 0.023 *	0.472 ± 0.077 **	0.208 ± 0.004
COc1cc2c3cc1Oc1c(OC)c(OC)cc4c1C(Cc1ccc(CCCCN5CCCC5)c(c1)Oc1ccc(cc1)CC3N(C)CC2)N(C)CC4 (centres unmarked) [BBMD7]	0.230 ± 0.018	0.266 ± 0.013 *	0.258 ± 0.024^	0.346 ± 0.041 **	0.550 ± 0.026 ****
COc1cc2c3cc1Oc1c(OC)c(OC)cc4c1C(Cc1ccc(OC(=O)CCNC(=O)OC(C)(C)C)c(c1)Oc1ccc(cc1)CC3N(C)CC2)N(C)CC4 (centres unmarked) [BBMD8]	0.268 ± 0.022 *	0.227 ± 0.028	0.261 ± 0.029^	0.326 ± 0.051 *	0.462 ± 0.027 ***
COc1cc2c3cc1Oc1c(OC)c(OC)cc4c1C(Cc1ccc(OCCCN)c(c1)Oc1ccc(cc1)CC3N(C)CC2)N(C)CC4 (centres unmarked) [BBMD9]	0.264 ± 0.030	0.255 ± 0.004 *	0.221 ± 0.017^	0.268 ± 0.020 *	0.328 ± 0.016**
